Reference: article PMC6511888, “Synthesis, Biological Evaluation, and Molecular Modeling Studies of New Thiadiazole Derivatives as Potent P2X7 Receptor Inhibitors” (Frontiers in Chemistry, 2019)

What was measured:
[1] = LDH release assay (toxicity); type: cell-based, mouse; conditions: mouse peritoneal macrophages; 24 h; read-out: Macrophages IC50 (toxic effect)
Protocol: (§1) Mouse peritoneal macrophages (5 × 10^5 cells) and HEK-293 cells transfected with P2X7R (5 × 10^5 cells) were plated in a 96-well-plate for 24 h before the treatment. […] The supernatant collected in this assay was used to measure the presence of LDH in the media using a cytotoxicity detection kit (Sigma kit for LDH) according to the manufacturer's instructions (Faria et al., [2018]).

[2] = test system: mouse peritoneal macrophages; assay: LDH release assay (toxicity); type: cell-based; conditions: relative to maximum LDH release caused by 0.05% Triton X-100, mean ± SD
Protocol: as §1

[3] = target: T1, P2X7R (Mus musculus, UniProt Q9Z1M0); assay: Dye uptake assay (propidium iodide) in mouse peritoneal macrophages; type: cell-based; conditions: mean ± SD
T1 construct: plated for 24 h before dye uptake assays, whole-cell patch clamp experiments, and IL-1β release assays; endogenous in cells; host or cells: mouse (Swiss Webster) peritoneal macrophages
T1 sequence (Q9Z1M0 1-595): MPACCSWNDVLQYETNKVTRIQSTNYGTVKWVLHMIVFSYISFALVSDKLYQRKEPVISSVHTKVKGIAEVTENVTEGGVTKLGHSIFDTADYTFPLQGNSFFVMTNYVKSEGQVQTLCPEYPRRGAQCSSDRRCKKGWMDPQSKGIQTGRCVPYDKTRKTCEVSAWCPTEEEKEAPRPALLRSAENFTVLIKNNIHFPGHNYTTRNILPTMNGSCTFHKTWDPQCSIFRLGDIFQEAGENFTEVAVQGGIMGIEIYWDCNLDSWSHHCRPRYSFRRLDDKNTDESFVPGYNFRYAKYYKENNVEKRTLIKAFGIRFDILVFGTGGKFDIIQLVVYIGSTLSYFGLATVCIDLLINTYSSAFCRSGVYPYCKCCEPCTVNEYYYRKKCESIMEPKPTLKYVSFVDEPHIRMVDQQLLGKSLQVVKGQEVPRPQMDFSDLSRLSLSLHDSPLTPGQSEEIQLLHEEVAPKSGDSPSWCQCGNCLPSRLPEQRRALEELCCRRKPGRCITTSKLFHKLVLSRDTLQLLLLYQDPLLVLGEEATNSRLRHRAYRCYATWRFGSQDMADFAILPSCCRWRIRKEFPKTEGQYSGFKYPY
Protocol: Our protocols adhered to the Ethical Principles in Animal Experimentation adopted by the Brazilian College of Animal Experimentation and approved by the FIOCRUZ Research Ethics Committee (Faria et al., [2005]; number L039- 2016). Male mouse (Swiss Webster) peritoneal macrophages were collected from peritoneal cavity lavage and plated for 24 h before dye uptake assays, whole-cell patch clamp experiments, and IL-1β release assays.
(§2) HEK-293 cells transfected with hP2X7R and mouse peritoneal macrophages were plated at 2.5 × 10^6 or 5 × 10^5 cells/ml, respectively, in 96-well culture plates containing DMEM with 10% FBS and anti-biotics (50 U/ml penicillin and […] streptomycin) in a humidified 5% CO2 atmosphere at 37°C for 24 h (Faria et al., [2018]).
[…] In the last 5 min of ATP incubation, propidium iodide for macrophages (PI; 750 nM) or ethidium bromide (EB; 25 μM) for HEK-293 cells was added to all wells. PI dye was excited at a wavelength of 530 nm, and its fluorescence emission was read at a wavelength of 590 nm using an M5 plate reader (Molecular Devices). EB dye was excited at a wavelength of 530 nm and emitted at a wavelength of 620 nm.

[4] = test system: P2X7R-mediated IL-1β release; assay: ATP-induced IL-1β release (ELISA) in differentiated THP-1 cells; type: cell-based, human; conditions: ATP-induced IL-1β release; LPS/IFN-differentiated human THP-1 cells; read-out: THP-1 cells IC50
Protocol: P2X7R-mediated IL-1β release was obtained from differentiated THP-1 cells stimulated with lipopolysaccharide (LPS) before ATP addition. […] THP-1 cells were differentiated with 500 ng/ml phorbol 12-myristate 13-acetate (PMA) and 10 ng/ml IFN-γ cotreatment for 24 h. These cells were activated with 25 ng/ml LPS for 4 h. […] P2X7R antagonists (BBG and A740003) and thiadiazole analogs were added 30 min before the ATP stimulus. The supernatants were collected, centrifuged (1,000 rpm for 5 min at 4°C), and stored at −70°C after LPS incubation. IL-1β was quantified using a standard kit (ABCAM, Cambridge).

[5] = target: T2, human P2X7R (Homo sapiens, UniProt Q99572); assay: Dye uptake assay (ethidium bromide) in HEK-293 cells transfected with hP2X7R; type: cell-based; conditions: ethidium uptake assay; HEK-293 cells transfected with human P2X7R; mean ± SD
T2 construct: expressed in transfected cells; host or cells: HEK-293
T2 sequence (Q99572 1-595): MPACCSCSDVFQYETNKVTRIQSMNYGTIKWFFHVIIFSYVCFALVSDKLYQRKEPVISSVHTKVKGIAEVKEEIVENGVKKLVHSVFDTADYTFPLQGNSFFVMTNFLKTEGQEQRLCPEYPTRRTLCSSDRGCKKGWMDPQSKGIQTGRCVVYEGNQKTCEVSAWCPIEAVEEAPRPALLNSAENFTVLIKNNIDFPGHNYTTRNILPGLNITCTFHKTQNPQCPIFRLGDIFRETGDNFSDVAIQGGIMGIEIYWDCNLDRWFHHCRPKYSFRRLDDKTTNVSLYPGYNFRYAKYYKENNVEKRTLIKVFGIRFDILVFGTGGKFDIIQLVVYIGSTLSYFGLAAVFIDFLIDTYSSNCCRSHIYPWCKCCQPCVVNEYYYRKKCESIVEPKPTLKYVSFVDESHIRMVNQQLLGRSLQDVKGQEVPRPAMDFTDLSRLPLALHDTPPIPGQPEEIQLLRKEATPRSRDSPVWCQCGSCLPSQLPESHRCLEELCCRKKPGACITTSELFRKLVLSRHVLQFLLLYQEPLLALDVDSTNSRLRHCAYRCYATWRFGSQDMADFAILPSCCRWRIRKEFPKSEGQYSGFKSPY
Protocol: HEK-293 cells expressing human P2X7R were maintained in Dulbecco's modified Eagle's medium (DMEM; Sigma-Aldrich) supplemented with 10% fetal bovine serum (FBS; Prolab, Br) and anti-biotics (50 U/ml penicillin and […] streptomycin) in a humidified 5% CO2 atmosphere at 37°C (Faria et al., [2018]). A total of 5 × 10^5 cells were plated at 37°C in a humidified 5% CO2 atmosphere for 24 h in a 96-well plate for dye uptake or IL-1β release assays.
as §2
P2X7R antagonist and thiadiazole analogs (1 nM to 0.5 mM) were incubated for 5 min before ATP (5 mM) treatment for 20 min. In the last 5 min of ATP incubation, propidium iodide for macrophages (PI; 750 nM) or ethidium bromide (EB; 25 μM) for HEK-293 cells was added to all wells. PI dye was excited at a wavelength of 530 nm, and its fluorescence emission was read at a wavelength of 590 nm using an M5 plate reader (Molecular Devices). EB dye was excited at a wavelength of 530 nm and emitted at a wavelength of 620 nm.

[6] = target: T3, P2Y4R (Mus musculus, UniProt Q9JJS7); assay: MRS4062-induced [Ca2+]i shifts in mice peritoneal macrophages; type: cell-based; conditions: 1 μM
T3 construct: endogenous in cells; host or cells: mouse peritoneal macrophages
T3 sequence (Q9JJS7 whole entry): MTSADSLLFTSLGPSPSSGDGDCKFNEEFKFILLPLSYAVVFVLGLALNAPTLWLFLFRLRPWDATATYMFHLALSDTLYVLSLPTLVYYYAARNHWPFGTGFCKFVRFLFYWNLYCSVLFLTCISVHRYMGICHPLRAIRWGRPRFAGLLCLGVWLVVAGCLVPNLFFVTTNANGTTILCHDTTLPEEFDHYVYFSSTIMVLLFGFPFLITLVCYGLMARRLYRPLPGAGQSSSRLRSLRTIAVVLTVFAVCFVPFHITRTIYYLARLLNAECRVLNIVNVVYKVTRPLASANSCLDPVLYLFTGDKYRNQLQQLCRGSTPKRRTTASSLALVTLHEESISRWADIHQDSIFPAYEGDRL
Protocol: (§3) Mouse peritoneal macrophages, PC12 cells, J774 cells, and HEPG2 cells were analyzed by fluorescence microscopy to measure the intracellular Ca^2+ concentrations ([Ca^2+]i). Cells were incubated with 2 μM Fura-2-AM (Molecular Probes) for 30 min, and the [Ca^2+]i mobilization was measured in the F340/F380 ratios with a FlexStation 3 multimode microplate reader (Molecular Devices). Cells were plated in translucent 96-well plates (BD Falcon) for 15 min and then washed and incubated in a saline solution with 150 NaCl, 5 KCl, 1 MgCl2, 1 CaCl2, and 10 HEPES (pH 7.4) for 30 min before measurements of [Ca^2+]i. The Ca^2+ influx was induced by stimulating cells with P2 receptor agonists. P2 receptor antagonists were added 10 min before P2 receptor agonist addition. […] Ionomycin was considered a positive control, and the other recordings were normalized in relation to the AUC.

[7] = test system: P2Y11R; assay: NAADP-induced [Ca2+]i shifts in mouse peritoneal macrophages; type: cell-based; conditions: 1 μM
Protocol: as §3

[8] = target: T4, P2Y12R (Mus musculus, UniProt Q9CPV9); assay: 2MeSADP-activated [Ca2+]i shifts in mouse peritoneal macrophages; type: cell-based; conditions: 1 μM
T4 construct: endogenous in cells; host or cells: mouse peritoneal macrophages
T4 sequence (Q9CPV9 whole entry): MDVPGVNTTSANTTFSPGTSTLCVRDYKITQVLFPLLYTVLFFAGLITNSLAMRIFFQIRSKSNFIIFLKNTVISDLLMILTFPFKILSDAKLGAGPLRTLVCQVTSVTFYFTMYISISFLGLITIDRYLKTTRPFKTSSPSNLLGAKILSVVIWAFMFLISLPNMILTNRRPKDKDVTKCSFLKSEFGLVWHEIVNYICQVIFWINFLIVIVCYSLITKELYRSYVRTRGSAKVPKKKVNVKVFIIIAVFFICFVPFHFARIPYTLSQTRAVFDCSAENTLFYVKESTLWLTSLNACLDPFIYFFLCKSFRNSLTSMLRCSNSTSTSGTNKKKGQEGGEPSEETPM

[9] = percentage relative to the maximum uptake of propidium stimulated by 1 mM ATP only

Structure (SMILES): CCOc1ccc(Nc2ccc(/C(=C3C=C/C(=[N+](/CC)Cc4cccc(S(=O)(=O)[O-])c4)C=C/3C)c3ccc(N(CC)Cc4cccc(S(=O)(=O)O)c4)cc3C)cc2)cc1 [BBG, Brilliant Blue G, reference compound]
- IC50 at 24 h [1]: 87 ± 1 µM
- % LDH release ([2]; BBG 750 nM): 13.2 ± 2.6%
- inhibition at 0.75 µM ([3]; BBG 750 nM, percentage relative to the maximum uptake of propidium stimulated by 1 mM ATP only): 78.8 ± 3.8%
- IC50 ([3]; propidium uptake assay, mice peritoneal macrophages): 1.2 ± 0.1 µM
- IC50 [4]: 1.9 ± 0.3 µM
- IC50 [5]: 0.589 ± 0.012 µM

Structure (SMILES): N#Cc1cnn(-c2nnc(-c3ccccc3)s2)c1N [Compound 9a]
- % LDH release ([2]; 10 μM, cell type not given): 58.1 ± 4.8%
- melting point: 234 to 235 °C
- inhibition at 10 µM [3, 9]: 89.2 ± 2.2%

Structure (SMILES): N#Cc1cnn(-c2nnc(-c3ccc(Cl)cc3)s2)c1N [Compound 9d]
- % LDH release ([2]; 10 μM, cell type not given): 46.3 ± 5.12%
- melting point: > 300 °C
- inhibition at 10 µM [3, 9]: 62.2 ± 4.02%

Structure (SMILES): CCOC(=O)c1cnn(-c2nnc(-c3ccccc3)s2)c1N [Compound 9e]
- % LDH release ([2]; 10 μM, cell type not given): 36.3 ± 11.0%
- melting point: 165 to 167 °C
- inhibition at 10 µM [3, 9]: 90.2 ± 0.4%

Structure (SMILES): CCOC(=O)c1cnn(-c2nnc(-c3ccc(F)cc3)s2)c1N [Compound 9g]
- % LDH release ([2]; 10 μM, cell type not given): 22.6 ± 0.3%
- melting point: 250 to 251 °C
- inhibition at 10 µM [3, 9]: 90.8 ± 1.1%

Structure (SMILES): CCOC(=O)c1cnn(-c2nnc(-c3ccc(Cl)cc3)s2)c1N [Compound 9h]
- % LDH release ([2]; 10 μM, cell type not given): 15 ± 1.9%
- melting point: 252 to 253 °C
- inhibition at 10 µM [3, 9]: 64 ± 3.7%

Structure (SMILES): Cc1cc(C)n(-c2nnc(-c3ccccc3)s2)n1 [Compound 11a]
- % LDH release ([2]; 10 μM, cell type not given): 34.1 ± 2%
- melting point: 170 to 171 °C
- inhibition at 10 µM [3, 9]: 92.5 ± 0.3%

Structure (SMILES): Cc1cc(C)n(-c2nnc(-c3ccccc3Cl)s2)n1 [Compound 11b]
- % LDH release ([2]; 10 μM, cell type not given): 45.7 ± 1.7%
- melting point: 163 to 165 °C
- inhibition at 10 µM [3, 9]: 89.7 ± 2.6%

Structure (SMILES): Cc1cc(C)n(-c2nnc(-c3ccc(Cl)cc3)s2)n1 [Compound 11d]
- % LDH release ([2]; 10 μM, cell type not given): 36.94 ± 10.6%
- melting point: 202 to 203 °C
- inhibition at 10 µM [3, 9]: 69.8 ± 0.7%

Structure (SMILES): CC1(O)CC(C(F)(F)F)=NN1c1nnc(-c2ccccc2)s1 (centres unmarked) [Compound 13a]
- % LDH release ([2]; 10 μM, cell type not given): 8 ± 0.6%
- melting point: 183 to 185 °C
- inhibition at 10 µM [3, 9]: 90.5 ± 1.4%

Structure (SMILES): CC1(O)CC(C(F)(F)F)=NN1c1nnc(-c2ccccc2Cl)s1 (centres unmarked) [Compound 13b]
- % LDH release ([2]; 10 μM, cell type not given): 19.6 ± 0.6%
- inhibition at 10 µM [3, 9]: 90.7 ± 1.6%

Structure (SMILES): CC1(O)CC(C(F)(F)F)=NN1c1nnc(-c2ccc(F)cc2)s1 (centres unmarked) [Compound 13c]
- % LDH release ([2]; 10 μM, cell type not given): 45.3 ± 1.4%
- melting point: 182 to 183 °C
- inhibition at 10 µM [3, 9]: 92 ± 0.4%

Structure (SMILES): CC1(O)CC(C(F)(F)F)=NN1c1nnc(-c2ccc(Cl)cc2)s1 (centres unmarked) [Compound 13d]
- % LDH release ([2]; 10 μM, cell type not given): 38.5 ± 6.2%
- melting point: 184 to 185 °C
- inhibition at 10 µM [3, 9]: 71 ± 0.2%

Structure (SMILES): Cc1cc(C(F)(F)F)nn1-c1nnc(-c2ccccc2)s1 [Compound 14a]
- % LDH release ([2]; 10 μM, cell type not given): 32 ± 1%
- melting point: 163 to 164 °C
- inhibition at 10 µM [3, 9]: 91 ± 1%

Structure (SMILES): Cc1cc(C(F)(F)F)nn1-c1nnc(-c2ccccc2Cl)s1 [Compound 14b]
- % LDH release ([2]; 10 μM, cell type not given): 26.6 ± 1.2%
- melting point: 139 to 140 °C
- inhibition at 10 µM [3, 9]: 92 ± 2%

Structure (SMILES): Cc1cc(C(F)(F)F)nn1-c1nnc(-c2ccc(F)cc2)s1 [Compound 14c]
- % LDH release ([2]; 10 μM, cell type not given): 10.6 ± 0.5%
- melting point: 149 to 150 °C
- inhibition at 10 µM [3, 9]: 92.5 ± 0.4%

Structure (SMILES): Cc1cc(C(F)(F)F)nn1-c1nnc(-c2ccc(Cl)cc2)s1 [Compound 14d]
- % LDH release ([2]; 10 μM, cell type not given): 43 ± 5%
- melting point: 147 to 148 °C
- inhibition at 10 µM [3, 9]: 54.7 ± 0.5%

Structure (SMILES): S=C=Nc1cccc(NC(=S)NCCCCNC(=S)Nc2cccc(N=C=S)c2)c1 [MRS2578]
- Effect on MRS4062-induced [Ca2+]i shifts [6]: inhibited

Structure (SMILES): Cc1ccc(C(=O)Nc2cc(S(=O)(=O)O)cc3ccc(S(=O)(=O)O)cc23)cc1NC(=O)Nc1cc(C(=O)Nc2cc(S(=O)(=O)O)cc3ccc(S(=O)(=O)O)cc23)ccc1C [NF340]
- Effect on NAADP-induced [Ca2+]i shifts [7]: inhibited

Structure (SMILES): CCCSc1nc(N[C@@H]2C[C@H]2c2ccc(F)c(F)c2)c2nnn([C@@H]3C[C@H](OCCO)[C@@H](O)[C@H]3O)c2n1 [Ticagrelor]
- Effect on 2MeSADP-activated [Ca2+]i shifts [8]: inhibited
